The numbers were not newly measured in patent publication US20070154432A1, “Compositions and methods for hair growth” (priority 2005, published 2007), which cites them from elsewhere.

For series [1] the following is noted: 200 individual; published in the Federal Register.
Another series relates to 5α-alpha reductase. The conditions noted are these: individually shown / studies have suggested.

Take `NC(=O)NC1NC(=O)NC1=O` (centres unmarked) [Allantoin, allantoin]: in series [1], the “toxicity, irritation and allergenicity by Schwartz patch test” value is “nontoxic, nonirritating and non-allergenic”.
Consider `CCCCC/C=C\C/C=C\CCCCCCCC(=O)O` [linoleic acid, Linoleic Acid], for which the “inhibition of 5α-alpha reductase (in words)” value in the series with 5α-alpha reductase is on record as “inhibit”.
For `CCCCC/C=C\C/C=C\C/C=C\CCCCC(=O)O` [GLA, Gamma Linolenic Acid], the “inhibition of 5α-alpha reductase (in words)” value in the series with 5α-alpha reductase is listed as “inhibit”.
For `CC/C=C\C/C=C\C/C=C\CCCCCCCC(=O)O` [ALA, Alpha Linolenic Acid], the “inhibition of 5α-alpha reductase (in words)” value with 5α-alpha reductase is reported as “inhibit”.
With `[Zn]` [zinc], the “inhibition of 5α-alpha reductase (in words)” value in the series with 5α-alpha reductase is reported as “inhibits”.
